Results as given in patent US20170253607A1, “LONG-ACTING HIV PROTEASE INHIBITOR” (Shionogi & Co., Ltd., priority 2014, published 2017).

Target: HIV-1 PR (Human immunodeficiency virus type 1 group M subtype B, UniProt P04585)
Assay: HIV-protease inhibitory activity assay (FRET peptide substrate)
Format: biochemical
Conditions: Test Example 1
Summary of the method: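 HIV-1 PR (0.83 ng) preincubated with compounds 20 min at room temperature in 0.1 mol/L NaAc, 0.5 mol/L NaCl, 1 mmol/L EDTA, 1 mmol/L DTT, 0.05% Tween 20, pH 4.8. Cleavage of HiLyte Fluor 488/QXL 520 FRET peptide (2 μmol/L) read after 60 minutes at 485/535 nm; IC50 from four-parameter logistic fit.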

Structure (SMILES) | IC50 [nM]
CC(C)CN(CC(O)C(Cc1ccc(OCc2ccc(-c3ccc(F)cc3F)cc2O)cc1)NC(=O)OC1COC2OCCC12)S(=O)(=O)c1ccc2ncsc2c1 (stereo not drawn) [Compound I-813] | 1.06
COc1ccc(S(=O)(=O)N(CC(C)C)CC(O)C(Cc2ccc(NCC3CCCCC3NC(=O)c3sc4c(c3C(=O)O)CC(C)(C)CC4)cc2)NC(=O)OC2COC3(C)OCCC23)cc1 (stereo not drawn) [Compound I-611] | 1.95
CC(C)CN(C[C@@H](O)[C@H](Cc1ccc(OCc2ccccc2-c2sc3c(c2C(=O)O)CC(C)(C)CC3)cc1)NC(=O)O[C@H]1CO[C@@]2(C)OCC[C@@H]12)S(=O)(=O)c1ccc(N)c(CCC(N)=O)c1 [Compound I-17] | 1.24
COc1ccc(S(=O)(=O)N(CC(C)C)CC(O)C(Cc2ccc(-c3cc(C(=O)O)cs3)cc2)NC(=O)OC2COC3(C)OCCC23)cc1 (stereo not drawn) [Compound I-109] | 1.2
COc1ccc(S(=O)(=O)N(CC(C)C)CC(O)C(Cc2ccc(NCc3ccc(-c4c(C(=O)O)sc5c4CC(C)(C)CC5)cc3)cc2)NC(=O)OC2COC3(C)OCCC23)cc1 (stereo not drawn) [Compound I-356] | 3.3
COc1ccc(S(=O)(=O)N(CC(C)C)CC(O)C(Cc2ccc(NCc3ccc(-c4sc5c(c4C(=O)O)CC(C)(C)CC5)cc3F)cc2)NC(=O)OC2COC3(C)OCCC23)cc1 (stereo not drawn) [Compound I-282] | 4.04
COc1ccc(S(=O)(=O)N(CC(C)C)CC(O)C(Cc2ccc(N(C)CC3COCCC3c3sc4c(c3C(=O)O)CC(C)(C)CC4)cc2)NC(=O)OC2COC3(C)OCCC23)cc1 (stereo not drawn) [Compound I-400] | 1.69
COc1ccc(S(=O)(=O)N(CC(C)C)CC(O)C(Cc2ccc(NCC3CCCC3c3sc4c(c3C(=O)O)CC(C)(C)CC4)cc2)NC(=O)OC2COC3OCCC23)cc1 (stereo not drawn) [Compound I-878] | 2.94
COc1ccc(S(=O)(=O)N(CC(C)C)CC(O)C(Cc2ccc(NCc3nc(N(C4CCCCC4)C4CCCCC4)sc3-c3sc4c(c3C(=O)O)CC(C)(C)CC4)cc2)NC(=O)OC2COC3(C)OCCC23)cc1 (stereo not drawn) [Compound I-760] | 3.38
COc1ccc(S(=O)(=O)N(CC(C)C)CC(O)C(Cc2ccc(OC3CC4CCC(C3)N4c3ccc(C#N)cc3-c3sc4c(c3C(=O)O)CC(C)(C)CC4)cc2)NC(=O)OC2COC3(C)OCCC23)cc1 (stereo not drawn) [Compound I-324] | 19.6
COc1ccc(S(=O)(=O)N(CC(C)C)CC(O)C(Cc2ccc(OCc3ccccc3-c3ccc(Cn4nc(C(=O)O)c5c4CCC(C)(C)C5)cc3)cc2)NC(=O)OC2COC3(C)OCCC23)cc1 (stereo not drawn) [Compound I-213] | 1.76
COc1ccc(S(=O)(=O)N(CC(C)C)CC(O)C(Cc2ccc(OCc3ccc(C#N)cc3-c3sc4c(c3C(=O)O)CC(C)(C)CC4)cc2)NC(=O)OC2COC3(C)OCCC23)cc1 (stereo not drawn) [Compound I-80] | 1.75
COc1ccc(S(=O)(=O)N(CC(C)C)CC(O)C(Cc2ccc(NCc3ccccc3-c3c(C(=O)O)c4ccccc4n3C)cc2)NC(=O)OC2COC3(C)OCCC23)cc1 (stereo not drawn) [Compound I-411] | 1.3
COc1ccc(S(=O)(=O)N(CC(C)C)CC(O)C(Cc2ccc(N3CCc4c(-c5sc6c(c5C(=O)O)CC(C)(C)CC6)cccc43)cc2)NC(=O)OC2COC3(C)OCCC23)cc1 (stereo not drawn) [Compound I-300] | 4.78
COc1ccc(S(=O)(=O)N(CC(C)C)CC(O)C(Cc2ccc(NCc3ccccc3-c3cc4c(cc3C(=O)O)OCCO4)cc2)NC(=O)OC2COC3(C)OCCC23)cc1 (stereo not drawn) [Compound I-496] | 1.81
COc1ccc(S(=O)(=O)N(CC(C)C)CC(O)C(Cc2ccc(NCc3cc(C(F)(F)F)ccc3C(=O)Nc3sc4c(c3C(=O)O)CC(C)(C)CC4)cc2)NC(=O)OC2COC3(C)OCCC23)cc1 (stereo not drawn) [Compound I-691] | 6.44
COc1ccc(S(=O)(=O)N(CC(C)C)CC(O)C(Cc2ccc(OCc3ccnc(C(=O)O)c3)cc2)NC(=O)OC2COC3(C)OCCC23)cc1 (stereo not drawn) [Compound I-306] | 1.89
COc1ccc(S(=O)(=O)N(CC(C)C)CC(O)C(Cc2ccc(NCc3cc(-c4ccc5c(c4)[nH]c4ccccc45)ccc3-c3sc4c(c3C(=O)O)CC(C)(C)CC4)cc2)NC(=O)OC2COC3(C)OCCC23)cc1 (stereo not drawn) [Compound I-724] | 1.83
